Source: the supplement of paper PMC10733146

Key:
Experiment in all cases: viability relative to DMSO control (fraction); higher = less drug effect (more viable cells)
Conditions in all cases: 48 h
[1] = system: primary AML patient cells (S002)
Method in brief: (§1)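 Primary mononuclear tumour cells (Ficoll-isolated from blood or bone marrow, or processed lymph node; fresh or cryopreserved) were plated at 4 × 10^4 cells per well in 384-well plates with pre-plated compounds at five concentrations, one well each. Medium was RPMI-1640 with penicillin/streptomycin, L-glutamine and human serum, at 37 °C and 5% CO2 for 48 h. Viability was read as CellTiter-Glo luminescence relative to the median of 16 inner DMSO wells.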

[2] = system: primary AML patient cells (S009)
Method in brief: as §1

[3] = system: primary AML patient cells (S017)
Method in brief: as §1

[4] = system: primary AML patient cells (S021)
Method in brief: as §1

[5] = system: primary AML patient cells (S025)
Method in brief: as §1

[6] = system: primary AML patient cells (S037)
Method in brief: as §1

[7] = system: primary AML patient cells (S055)
Method in brief: as §1

[8] = system: primary AML patient cells (S060)
Method in brief: as §1

[9] = system: primary AML patient cells (S071)
Method in brief: as §1

[10] = system: primary AML patient cells (S072)
Method in brief: as §1

[11] = system: primary AML patient cells (S081)
Method in brief: as §1

[12] = system: primary AML patient cells (S089)
Method in brief: as §1

[13] = system: primary AML patient cells (S091)
Method in brief: as §1

[14] = system: primary B-PLL patient cells (S016)
Method in brief: as §1

[15] = system: primary BL patient cells (S005)
Method in brief: as §1

[16] = system: primary CLL patient cells (S043)
Method in brief: as §1

[17] = system: primary DLBCL patient cells (S082)
Method in brief: as §1

[18] = system: primary MCL patient cells (S068)
Method in brief: as §1

[19] = system: primary T-PLL patient cells (S008)
Method in brief: as §1

## C[C@@H](Oc1cc(-c2cnn(C3CCNCC3)c2)cnc1N)c1c(Cl)ccc(F)c1Cl [Crizotinib]
[1]; 0.024 µM
  viability: 1.04
[1]; 0.12 µM
  viability: 1.08
[1]; 0.6 µM
  viability: 1.01
[1]; 3 µM
  viability: 0.928
[1]; 15 µM
  viability: 0.652
[2]; 0.024 µM
  viability: 0.984
[2]; 0.12 µM
  viability: 0.895
[2]; 0.6 µM
  viability: 0.761
[2]; 3 µM
  viability: 0.57
[2]; 15 µM
  viability: 0.147
[3]; 0.024 µM
  viability: 1.03
[3]; 0.12 µM
  viability: 1.03
[3]; 0.6 µM
  viability: 1.02
[3]; 3 µM
  viability: 0.636
[3]; 15 µM
  viability: 0.299
[4]; 0.024 µM
  viability: 1.06
[4]; 0.12 µM
  viability: 1.1
[4]; 0.6 µM
  viability: 1.1
[4]; 3 µM
  viability: 0.831
[4]; 15 µM
  viability: 0.345
[5]; 0.024 µM
  viability: 0.983
[5]; 0.12 µM
  viability: 1.05
[5]; 0.6 µM
  viability: 1.02
[5]; 3 µM
  viability: 0.94
[5]; 15 µM
  viability: 0.794
[6]; 0.024 µM
  viability: 0.974
[6]; 0.12 µM
  viability: 0.982
[6]; 0.6 µM
  viability: 1.01
[6]; 3 µM
  viability: 0.937
[6]; 15 µM
  viability: 0.586
[7]; 0.024 µM
  viability: 0.948
[7]; 0.12 µM
  viability: 0.954
[7]; 0.6 µM
  viability: 0.999
[7]; 3 µM
  viability: 0.683
[7]; 15 µM
  viability: 0.524
[8]; 0.024 µM
  viability: 0.926
[8]; 0.12 µM
  viability: 0.931
[8]; 0.6 µM
  viability: 0.931
[8]; 3 µM
  viability: 0.841
[8]; 15 µM
  viability: 0.445
[9]; 0.024 µM
  viability: 0.879
[9]; 0.12 µM
  viability: 0.837
[9]; 0.6 µM
  viability: 0.556
[9]; 3 µM
  viability: 0.363
[9]; 15 µM
  viability: 0.0351
[10]; 0.024 µM
  viability: 0.903
[10]; 0.12 µM
  viability: 0.983
[10]; 0.6 µM
  viability: 0.838
[10]; 3 µM
  viability: 0.602
[10]; 15 µM
  viability: 0.127
[11]; 0.024 µM
  viability: 0.9
[11]; 0.12 µM
  viability: 0.922
[11]; 0.6 µM
  viability: 0.895
[11]; 3 µM
  viability: 0.85
[11]; 15 µM
  viability: 0.386
[12]; 0.024 µM
  viability: 0.935
[12]; 0.12 µM
  viability: 0.93
[12]; 0.6 µM
  viability: 0.722
[12]; 3 µM
  viability: 0.359
[12]; 15 µM
  viability: 0.0318
[13]; 0.024 µM
  viability: 0.922
[13]; 0.12 µM
  viability: 0.97
[13]; 0.6 µM
  viability: 0.817
[13]; 3 µM
  viability: 0.249
[13]; 15 µM
  viability: 0.0707
[14]; 0.024 µM
  viability: 0.971
[14]; 0.12 µM
  viability: 0.944
[14]; 0.6 µM
  viability: 0.874
[14]; 3 µM
  viability: 0.88
[14]; 15 µM
  viability: 0.255
[15]; 0.024 µM
  viability: 0.975
[15]; 0.12 µM
  viability: 0.986
[15]; 0.6 µM
  viability: 0.905
[15]; 3 µM
  viability: 0.766
[15]; 15 µM
  viability: 0.309
[16]; 0.024 µM
  viability: 0.95
[16]; 0.12 µM
  viability: 0.977
[16]; 0.6 µM
  viability: 0.949
[16]; 3 µM
  viability: 0.772
[16]; 15 µM
  viability: 0.4
[17]; 0.024 µM
  viability: 0.975
[17]; 0.12 µM
  viability: 0.989
[17]; 0.6 µM
  viability: 1.01
[17]; 3 µM
  viability: 0.916
[17]; 15 µM
  viability: 0.36
[18]; 0.024 µM
  viability: 0.989
[18]; 0.12 µM
  viability: 1.22
[18]; 0.6 µM
  viability: 1.58
[18]; 3 µM
  viability: 1.72
[18]; 15 µM
  viability: 0.816
[19]; 0.024 µM
  viability: 0.983
[19]; 0.12 µM
  viability: 1.02
[19]; 0.6 µM
  viability: 0.969
[19]; 3 µM
  viability: 0.955
[19]; 15 µM
  viability: 0.655
